11 molecules from ChEMBL document CHEMBL2424593, “New scaffolds of natural origin as Integrase-LEDGF/p75 interaction inhibitors: virtual screening and activity assays” (Eur J Med Chem, 2013) can be followed below.

Calls of active or inactive are those of the source. The calls are words filed in the database; no cut-off is given here.

Data set [1] in a line: Inhibition of HIV1 His6-tagged integrase-LEDGF/p75 (unknown origin) interaction incubated for 30 mins followed by LEDGF/p75 addition measured after 4 hrs.
A short description of data set [2]: Inhibition of HIV1 His6-tagged integrase-LEDGF/p75 (unknown origin) interaction at 100 uM incubated for 30 mins followed by LEDGF/p75 addition measured after 4 hrs relative to control.
Data set [3] deals with Human immunodeficiency virus. Nature of the data set: Antiviral activity against HIV 3B infected in human MT4 cells assessed as protection against virus-induced cytopathic effect at 100 uM by MTT assay. The format is functional, organism-based.
The next data set relates to MT4. Nature of the data set: Cytotoxicity against human MT4 cells at 125 uM by MTT assay. The data set is classed as cell-based. Conditions: mt4, 125 µM. A general note: Formazan colour is commonly taken as a measure of viable cells.

Regarding `O=C(O)Cc1c(-c2ccccc2)c2cc(Cl)ccc2[nH]c1=O`, in data set [1], the IC50 worked out at 12.2 µM.

Regarding `CCc1cc(C(=O)Cc2ccc3c(c2)OCCO3)c(O)cc1OCC(=O)O`, in data set [1], the IC50 was more than 100 µM. For the same molecule, the inhibition in data set [2] came to 50%.

As to `Cc1ccc2[nH]c(=O)c(CC(=O)O)c(-c3ccccc3)c2c1`, in data set [1], the half-inhibitory concentration (IC50) was found to be 52.5 µM. Moreover, the inhibition in data set [2] was 61%.

In turn, `COc1ccc2nc(C)cc(Nc3cccc(C(=O)O)c3)c2c1` came in with an inhibition in data set [2] of 30%.

For `Cc1cn2c3c(=O)n(CCc4ccccc4)c(=O)n(C)c3nc2n1CC(=O)O`, the inhibition in data set [2] was determined as 52%.

Consider `Cn1c(=O)c(CC(=O)O)c(O)c2ccccc21`, for which the inhibition result in data set [2] was “inactive”.

In the case of `O=C(O)c1nn(Cc2ccc(Cl)cc2Cl)c2ccccc12`, in data set [2], the inhibition was determined as 40%.

`Cc1c(OC(C(=O)O)c2ccccc2)ccc2c(-c3ccccc3)cc(=O)oc12` (racemic) had an IC50 in data set [1] of 37.2 µM. Further, the outcome in data set [3] was inactive. Also, the inhibition in data set [2] was 87%.

In the case of `CCCC(C(=O)O)c1cnc2ccc(Cl)cc2c1-c1ccccc1` (racemic), in data set [1], the IC50 turned out to be 1.37 µM.

Molecule `COc1ccc(/C=C2/SC(=S)N(C(C(=O)O)C(C)C)C2=O)cc1` (racemic) gave a 50% inhibitory concentration (IC50) in data set [1] of 41.3 µM. The result in data set [3] was inactive. Also, the Activity entry in the data set with MT4 is recorded as “Non-toxic”.

`O=C(O)c1cc(N(Cc2ccccc2O)Cc2ccccc2O)ccc1O` [LAVENDUSTIN B] gave an IC50 in data set [1] of 94.1 µM. Further, in data set [2], the inhibition is 58%.

What is called IC50 is the midpoint of a concentration-inhibition curve. As usually defined, the inhibition is the relative decrease from the control value, in per cent.
